This is an account of results in US20240150360A1 (THE REGENTS OF THE UNIVERSITY OF MICHIGAN, priority 2021, published 2024).

The test system of assay [1] is 22Rv1 cells. Kind of assay: Cell growth inhibition assay (CellTiter-Glo) in 22Rv1. Format: cell-based, human. The conditions noted are these: Homo sapiens, 22Rv1, 96 h, 22Rv1 cells, 96 h incubation; read-out: Cell Growth Inhibition (IC50) 22Rv1. The gist of the method: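 22Rv1 prostate cancer cells (passages 3-8, DMEM with 10% FBS) were seeded at 4000 cells/well with compound, 3-fold dilutions from 10 μM final. After 96 h at 37° C and 5% CO2, growth was read by CellTiter-Glo 2.0 luminescence.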
Background: Cellular ATP, detected with luciferase, serves as a proxy for viable cell number.

The target in assay [2] is T1, CBP (Homo sapiens, UniProt Q92793).
T1 construct: endogenous in cells; host or cells: 22Rv1 (ATCC CRL-2505) human prostate cancer cells
Kind of assay: CBP degradation in 22Rv1 cells (5 h). The settings on record: 22Rv1 cells, 5 h; for Dmax: 22Rv1, 5 h, read-out: CBP Degradation (22Rv1, 5 h) DCmax. The assay is classed as cell-based. An excerpt: (§1) Biological Assays. […] Cells with 3-8 passages after purchase were used in experiments.

Assay [3] addresses T2, P300 (Homo sapiens, UniProt Q09472).
T2 construct: endogenous in cells; host or cells: 22Rv1 (ATCC CRL-2505) human prostate cancer cells
Kind of assay: P300 degradation in 22Rv1 cells (5 h). The assay is classed as cell-based. The settings on record: 22Rv1 cells, 5 h; for Dmax: read-out: P300 Degradation (22Rv1, 5 h) DCmax.
Text: as §1

For assay [4], the system named is HL60. Kind of assay: Cell growth inhibition in HL60. Format: cell-based. The settings on record: Homo sapiens, HL-60, HL60 cells; read-out: Cell Growth Inhibition (IC50) HL60.

T1 sequence (Q92793 whole entry): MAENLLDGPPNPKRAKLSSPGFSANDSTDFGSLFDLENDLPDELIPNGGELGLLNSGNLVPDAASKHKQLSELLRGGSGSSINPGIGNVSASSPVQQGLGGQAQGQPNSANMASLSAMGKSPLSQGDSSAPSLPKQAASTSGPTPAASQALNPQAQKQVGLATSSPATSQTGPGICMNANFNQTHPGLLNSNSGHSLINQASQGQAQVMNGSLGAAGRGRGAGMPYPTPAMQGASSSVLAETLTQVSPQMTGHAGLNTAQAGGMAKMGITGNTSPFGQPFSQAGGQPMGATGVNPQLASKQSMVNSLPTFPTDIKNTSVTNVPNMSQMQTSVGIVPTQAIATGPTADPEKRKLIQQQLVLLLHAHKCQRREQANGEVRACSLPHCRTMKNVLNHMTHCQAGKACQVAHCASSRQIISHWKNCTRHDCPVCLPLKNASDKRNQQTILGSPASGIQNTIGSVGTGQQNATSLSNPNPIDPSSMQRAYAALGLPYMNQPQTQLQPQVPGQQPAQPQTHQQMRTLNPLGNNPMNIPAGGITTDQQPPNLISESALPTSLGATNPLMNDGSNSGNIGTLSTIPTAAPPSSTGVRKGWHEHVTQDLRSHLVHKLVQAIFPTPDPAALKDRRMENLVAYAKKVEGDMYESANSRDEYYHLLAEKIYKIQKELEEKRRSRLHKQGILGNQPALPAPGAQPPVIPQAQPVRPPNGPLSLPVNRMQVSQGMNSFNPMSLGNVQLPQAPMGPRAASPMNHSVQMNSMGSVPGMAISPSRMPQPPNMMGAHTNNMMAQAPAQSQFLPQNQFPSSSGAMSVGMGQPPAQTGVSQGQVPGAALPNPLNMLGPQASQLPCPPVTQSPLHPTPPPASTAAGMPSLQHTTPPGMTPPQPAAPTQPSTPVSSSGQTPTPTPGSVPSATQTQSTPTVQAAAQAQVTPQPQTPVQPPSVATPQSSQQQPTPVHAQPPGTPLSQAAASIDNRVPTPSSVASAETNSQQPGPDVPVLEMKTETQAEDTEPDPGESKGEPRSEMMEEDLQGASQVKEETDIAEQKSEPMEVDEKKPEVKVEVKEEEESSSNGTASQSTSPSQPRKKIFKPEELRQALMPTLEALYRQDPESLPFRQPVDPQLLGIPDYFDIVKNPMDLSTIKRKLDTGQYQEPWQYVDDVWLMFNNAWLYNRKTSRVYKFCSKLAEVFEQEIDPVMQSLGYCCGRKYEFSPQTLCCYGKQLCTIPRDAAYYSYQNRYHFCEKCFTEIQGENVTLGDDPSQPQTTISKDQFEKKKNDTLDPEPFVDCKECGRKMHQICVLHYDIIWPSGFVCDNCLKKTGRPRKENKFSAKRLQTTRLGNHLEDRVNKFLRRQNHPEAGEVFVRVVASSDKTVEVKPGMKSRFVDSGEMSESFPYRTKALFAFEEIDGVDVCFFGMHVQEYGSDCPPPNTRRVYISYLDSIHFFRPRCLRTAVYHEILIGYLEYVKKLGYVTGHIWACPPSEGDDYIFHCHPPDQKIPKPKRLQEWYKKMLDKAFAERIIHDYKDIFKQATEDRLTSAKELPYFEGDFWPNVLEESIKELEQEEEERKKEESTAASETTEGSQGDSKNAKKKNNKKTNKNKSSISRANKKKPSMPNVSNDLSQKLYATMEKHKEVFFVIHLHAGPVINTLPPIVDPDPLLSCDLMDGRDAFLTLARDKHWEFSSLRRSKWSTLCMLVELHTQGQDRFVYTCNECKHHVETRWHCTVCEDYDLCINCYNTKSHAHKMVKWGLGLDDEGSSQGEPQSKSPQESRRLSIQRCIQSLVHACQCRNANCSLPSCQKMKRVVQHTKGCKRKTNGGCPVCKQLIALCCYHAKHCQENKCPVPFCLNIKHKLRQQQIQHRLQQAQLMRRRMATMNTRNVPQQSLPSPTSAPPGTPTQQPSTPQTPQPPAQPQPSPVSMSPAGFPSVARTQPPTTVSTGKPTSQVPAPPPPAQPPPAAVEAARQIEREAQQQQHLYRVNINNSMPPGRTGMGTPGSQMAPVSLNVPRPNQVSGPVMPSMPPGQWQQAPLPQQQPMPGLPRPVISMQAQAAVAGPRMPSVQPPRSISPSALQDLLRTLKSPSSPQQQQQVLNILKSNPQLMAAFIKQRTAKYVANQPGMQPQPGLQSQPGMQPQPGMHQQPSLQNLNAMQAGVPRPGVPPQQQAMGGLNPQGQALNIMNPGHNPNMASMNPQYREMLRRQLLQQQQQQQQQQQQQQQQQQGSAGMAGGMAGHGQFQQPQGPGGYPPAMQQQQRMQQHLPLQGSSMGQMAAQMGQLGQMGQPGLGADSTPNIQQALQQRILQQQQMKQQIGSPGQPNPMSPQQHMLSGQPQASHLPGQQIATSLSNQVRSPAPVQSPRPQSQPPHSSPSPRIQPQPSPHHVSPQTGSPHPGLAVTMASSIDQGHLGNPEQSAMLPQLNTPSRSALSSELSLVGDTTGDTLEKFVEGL
T2 sequence (Q09472 whole entry): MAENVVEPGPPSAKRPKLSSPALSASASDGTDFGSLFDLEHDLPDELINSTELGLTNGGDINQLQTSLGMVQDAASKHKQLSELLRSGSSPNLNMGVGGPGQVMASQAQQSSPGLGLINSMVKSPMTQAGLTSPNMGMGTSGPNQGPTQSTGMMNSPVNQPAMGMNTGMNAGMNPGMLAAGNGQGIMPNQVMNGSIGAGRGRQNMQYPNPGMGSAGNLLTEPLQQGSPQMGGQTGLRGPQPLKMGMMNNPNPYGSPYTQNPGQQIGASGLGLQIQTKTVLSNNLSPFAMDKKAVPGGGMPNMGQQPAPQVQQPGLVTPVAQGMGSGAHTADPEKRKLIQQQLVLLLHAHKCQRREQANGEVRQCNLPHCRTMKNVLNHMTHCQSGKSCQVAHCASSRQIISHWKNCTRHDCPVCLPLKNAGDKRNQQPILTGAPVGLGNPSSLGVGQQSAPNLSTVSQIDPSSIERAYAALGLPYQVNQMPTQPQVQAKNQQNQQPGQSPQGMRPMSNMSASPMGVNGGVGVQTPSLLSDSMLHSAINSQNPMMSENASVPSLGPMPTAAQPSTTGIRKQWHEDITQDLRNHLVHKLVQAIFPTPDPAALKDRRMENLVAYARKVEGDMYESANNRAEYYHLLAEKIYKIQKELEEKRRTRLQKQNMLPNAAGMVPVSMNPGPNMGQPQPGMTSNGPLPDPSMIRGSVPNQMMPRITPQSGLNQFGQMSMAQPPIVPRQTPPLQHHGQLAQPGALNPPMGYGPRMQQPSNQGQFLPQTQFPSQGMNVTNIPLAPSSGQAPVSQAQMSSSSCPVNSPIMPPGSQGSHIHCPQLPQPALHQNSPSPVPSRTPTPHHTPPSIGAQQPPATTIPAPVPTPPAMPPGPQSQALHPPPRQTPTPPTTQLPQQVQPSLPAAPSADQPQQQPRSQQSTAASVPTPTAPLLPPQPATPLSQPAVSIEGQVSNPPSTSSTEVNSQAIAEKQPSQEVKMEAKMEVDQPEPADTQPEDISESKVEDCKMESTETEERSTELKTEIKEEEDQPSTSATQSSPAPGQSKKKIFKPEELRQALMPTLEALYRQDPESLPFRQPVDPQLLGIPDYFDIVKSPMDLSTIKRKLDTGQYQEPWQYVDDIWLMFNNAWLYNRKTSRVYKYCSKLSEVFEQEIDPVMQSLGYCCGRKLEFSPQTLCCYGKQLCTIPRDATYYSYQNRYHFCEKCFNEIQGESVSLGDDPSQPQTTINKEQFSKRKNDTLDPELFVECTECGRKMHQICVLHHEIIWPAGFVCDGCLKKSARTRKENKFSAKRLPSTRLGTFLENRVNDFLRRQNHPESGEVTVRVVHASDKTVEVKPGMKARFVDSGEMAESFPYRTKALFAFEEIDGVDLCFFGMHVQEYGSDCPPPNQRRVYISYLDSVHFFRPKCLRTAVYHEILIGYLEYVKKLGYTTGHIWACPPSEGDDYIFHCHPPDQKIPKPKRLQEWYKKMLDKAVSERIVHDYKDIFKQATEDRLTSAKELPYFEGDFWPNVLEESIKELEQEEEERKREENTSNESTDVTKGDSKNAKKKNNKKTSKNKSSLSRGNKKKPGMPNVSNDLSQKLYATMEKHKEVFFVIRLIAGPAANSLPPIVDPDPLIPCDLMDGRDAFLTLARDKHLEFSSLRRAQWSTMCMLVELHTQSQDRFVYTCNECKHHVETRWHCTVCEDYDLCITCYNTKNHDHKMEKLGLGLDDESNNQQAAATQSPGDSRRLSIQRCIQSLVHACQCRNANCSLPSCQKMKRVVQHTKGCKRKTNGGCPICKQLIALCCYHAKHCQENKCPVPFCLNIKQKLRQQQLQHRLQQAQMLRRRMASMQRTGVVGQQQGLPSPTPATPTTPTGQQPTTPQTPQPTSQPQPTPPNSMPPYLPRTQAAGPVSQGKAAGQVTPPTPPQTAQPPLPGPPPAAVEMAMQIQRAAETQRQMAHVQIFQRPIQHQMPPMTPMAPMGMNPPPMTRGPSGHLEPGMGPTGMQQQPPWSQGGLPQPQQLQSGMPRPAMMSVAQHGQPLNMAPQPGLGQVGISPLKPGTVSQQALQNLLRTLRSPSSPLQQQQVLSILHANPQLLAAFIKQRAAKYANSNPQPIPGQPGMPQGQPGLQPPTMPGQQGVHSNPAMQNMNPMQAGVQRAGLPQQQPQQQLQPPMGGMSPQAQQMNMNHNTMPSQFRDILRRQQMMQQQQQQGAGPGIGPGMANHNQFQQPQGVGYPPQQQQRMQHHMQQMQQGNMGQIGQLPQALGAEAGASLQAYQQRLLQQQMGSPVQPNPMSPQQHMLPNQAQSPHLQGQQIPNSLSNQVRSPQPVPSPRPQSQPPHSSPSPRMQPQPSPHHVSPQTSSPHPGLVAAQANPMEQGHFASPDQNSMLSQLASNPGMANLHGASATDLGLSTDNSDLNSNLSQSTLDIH

Usually IC50 stands for the point on the concentration scale where inhibition reaches its midpoint. Usually DC50 stands for the concentration at which degradation of the target reaches its halfway point. A higher DC50 goes with a less potent degrader. Turning to `CC(=O)N1CCc2c(c(N3CCCc4cc(C)c(C(F)F)cc43)nn2C2CCN(C(=O)CN3Cc4cc5c(cc4C3)C(=O)N(C3CCC(=O)NC3=O)C5=O)CC2)C1` (stereo not drawn) [CP-011, 6-(2-(4-(5-acetyl-3-(7-(difluoromethyl)-6-methyl-3,4-dihydroquinolin-1(2H)-yl)-4,5,6,7-tetrahydro-1H-pyrazolo[4,3-c]pyridin-1-yl)piperidin-1-yl)-2-oxoethyl)-2-(2,6-dioxopiperidin-3-yl)-6,7-dihydropyrrolo[3,4-f]isoindole-1,3(2H,5H)-dione], the IC50 in assay [1] and in assay [4] was less than 1000 nM each time. Also, the figures for the Dmax in assay [2] and in assay [3] were more than 90% and more than 70%, respectively. The DC50 in assay [2] and in assay [3] was less than 10 nM in each case.

As to `CCc1cc2c(cc1C(F)F)N(c1nn(C3CCN(C(=O)CN4Cc5cc6c(cc5C4)C(=O)N(C4CCC(=O)NC4=O)C6=O)CC3)c3c1CN(C(C)=O)CC3)CCC2` (stereo not drawn) [CP-012, 6-(2-(4-(5-acetyl-3-(7-(difluoromethyl)-6-ethyl-3,4-dihydroquinolin-1(2H)-yl)-4,5,6,7-tetrahydro-1H-pyrazolo[4,3-c]pyridin-1-yl)piperidin-1-yl)-2-oxoethyl)-2-(2,6-dioxopiperidin-3-yl)-6,7-dihydropyrrolo[3,4-f]isoindole-1,3(2H,5H)-dione], the IC50 is less than 1000 nM in assay [1] and less than 100 nM in assay [4]. Besides, the figures for the Dmax in assay [2] and in assay [3] were more than 90% and more than 70%, respectively. Also, the DC50 in assay [2] and in assay [3] was less than 10 nM each time.

For `CC(=O)N1CCc2c(c(N3CCCc4cc(C5CC5)c(C(F)F)cc43)nn2C2CCN(C(=O)CN3Cc4cc5c(cc4C3)C(=O)N(C3CCC(=O)NC3=O)C5=O)CC2)C1` (stereo not drawn) [CP-013, 6-(2-(4-(5-acetyl-3-(6-cyclopropyl-7-(difluoromethyl)-3,4-dihydroquinolin-1(2H)-yl)-4,5,6,7-tetrahydro-1H-pyrazolo[4,3-c]pyridin-1-yl)piperidin-1-yl)-2-oxoethyl)-2-(2,6-dioxopiperidin-3-yl)-6,7-dihydropyrrolo[3,4-f]isoindole-1,3(2H,5H)-dione], the IC50 in assay [1] and in assay [4] was less than 1000 nM each time. In addition, the Dmax in assay [2] and in assay [3] was more than 90% throughout. Moreover, the DC50 in assay [2] and in assay [3] was less than 10 nM in each case.

With `CC(=O)N1CCc2c(c(N3CCCc4cc(C5CC5)c(C(F)F)cc43)nn2C2CCN(C(=O)CN3CCc4cc5c(cc4C3)C(=O)N(C3CCC(=O)NC3=O)C5=O)CC2)C1` (stereo not drawn) [CP-014, 6-(2-(4-(5-acetyl-3-(6-cyclopropyl-7-(difluoromethyl)-3,4-dihydroquinolin-1(2H)-yl)-4,5,6,7-tetrahydro-1H-pyrazolo[4,3-c]pyridin-1-yl)piperidin-1-yl)-2-oxoethyl)-2-(2,6-dioxopiperidin-3-yl)-5,6,7,8-tetrahydro-1H-pyrrolo[3,4-g]isoquinoline-1,3(2H)-dione], the IC50 in assay [1] and in assay [4] was less than 1000 nM in each case. Besides, the Dmax was more than 90% in assay [2] and more than 70% in assay [3]. In addition, the DC50 in assay [2] and in assay [3] was less than 10 nM in each case.

Turning to `CC(=O)N1CCc2c(c(N3CCCc4cc(C(C)C)c(C(F)F)cc43)nn2C2CCN(C(=O)CN3Cc4cc5c(cc4C3)C(=O)N(C3CCC(=O)NC3=O)C5=O)CC2)C1` (stereo not drawn) [CP-015, 6-(2-(4-(5-acetyl-3-(7-(difluoromethyl)-6-isopropyl-3,4-dihydroquinolin-1(2H)-yl)-4,5,6,7-tetrahydro-1H-pyrazolo[4,3-c]pyridin-1-yl)piperidin-1-yl)-2-oxoethyl)-2-(2,6-dioxopiperidin-3-yl)-6,7-dihydropyrrolo[3,4-f]isoindole-1,3(2H,5H)-dione], the 50% inhibitory concentration (IC50) in assay [1] is less than 1000 nM; in assay [4] it was less than 100 nM. For the same compound, the Dmax was more than 90% in assay [2] and more than 70% in assay [3]. Further, the DC50 in assay [2] and in assay [3] was less than 10 nM in each case.

On to `CC(=O)N1CCc2c(c(N3CCCc4cc(Br)c(C(F)F)cc43)nn2C2CCN(C(=O)CN3Cc4cc5c(cc4C3)C(=O)N(C3CCC(=O)NC3=O)C5=O)CC2)C1` (stereo not drawn) [CP-016, 6-(2-(4-(5-acetyl-3-(6-bromo-7-(difluoromethyl)-3,4-dihydroquinolin-1(2H)-yl)-4,5,6,7-tetrahydro-1H-pyrazolo[4,3-c]pyridin-1-yl)piperidin-1-yl)-2-oxoethyl)-2-(2,6-dioxopiperidin-3-yl)-6,7-dihydropyrrolo[3,4-f]isoindole-1,3(2H,5H)-dione], for which the IC50 in assay [1] is less than 1000 nM; in assay [4], less than 100 nM. Moreover, the Dmax in assay [2] and in assay [3] was less than 50% in each case. For the same compound, the DC50 in assay [2] and in assay [3] was more than 1000 nM in each case.

`CC(=O)N1CCc2c(c(N3CCCc4cc(Cl)c(C(F)F)cc43)nn2C2CCN(C(=O)CN3Cc4cc5c(cc4C3)C(=O)N(C3CCC(=O)NC3=O)C5=O)CC2)C1` (stereo not drawn) [CP-017, 6-(2-(4-(5-acetyl-3-(6-chloro-7-(difluoromethyl)-3,4-dihydroquinolin-1(2H)-yl)-4,5,6,7-tetrahydro-1H-pyrazolo[4,3-c]pyridin-1-yl)piperidin-1-yl)-2-oxoethyl)-2-(2,6-dioxopiperidin-3-yl)-6,7-dihydropyrrolo[3,4-f]isoindole-1,3(2H,5H)-dione]: the IC50 in assay [1] and in assay [4] was more than 10000 nM in each case. The Dmax in assay [2] and in assay [3] was less than 50% throughout. For the same compound, the DC50 in assay [2] and in assay [3] was more than 1000 nM in each case.

In the case of `CC(=O)N1CCc2c(c(N3CCCc4cc(Cl)c(C(F)F)cc43)nn2C2CCN(C(=O)CN3CCc4cc5c(cc4C3)C(=O)N(C3CCC(=O)NC3=O)C5=O)CC2)C1` (stereo not drawn) [CP-018, 6-(2-(4-(5-acetyl-3-(6-chloro-7-(difluoromethyl)-3,4-dihydroquinolin-1(2H)-yl)-4,5,6,7-tetrahydro-1H-pyrazolo[4,3-c]pyridin-1-yl)piperidin-1-yl)-2-oxoethyl)-2-(2,6-dioxopiperidin-3-yl)-5,6,7,8-tetrahydro-1H-pyrrolo[3,4-g]isoquinoline-1,3(2H)-dione], the IC50 in assay [1] and in assay [4] was more than 10000 nM in each case. Moreover, the Dmax in assay [2] and in assay [3] was less than 50% in each case. Further, the DC50 in assay [2] is less than 1000 nM; in assay [3], more than 1000 nM.

Turning to `CC(=O)c1cc2c(cc1C(F)F)N(c1nn(C3CCN(C(=O)CN4Cc5cc6c(cc5C4)C(=O)N(C4CCC(=O)NC4=O)C6=O)CC3)c3c1CN(C(C)=O)CC3)CCC2` (stereo not drawn) [CP-019, 6-(2-(4-(5-acetyl-3-(6-acetyl-7-(difluoromethyl)-3,4-dihydroquinolin-1(2H)-yl)-4,5,6,7-tetrahydro-1H-pyrazolo[4,3-c]pyridin-1-yl)piperidin-1-yl)-2-oxoethyl)-2-(2,6-dioxopiperidin-3-yl)-6,7-dihydropyrrolo[3,4-f]isoindole-1,3(2H,5H)-dione], the IC50 in assay [1] is more than 10000 nM; in assay [4], less than 1000 nM. In addition, the Dmax in assay [2] and in assay [3] was less than 50% throughout. Also, the DC50 in assay [2] and in assay [3] was more than 1000 nM each time.

`CC(=O)c1cc2c(cc1C(F)F)N(c1nn(C3CCN(C(=O)CN4CCc5cc6c(cc5C4)C(=O)N(C4CCC(=O)NC4=O)C6=O)CC3)c3c1CN(C(C)=O)CC3)CCC2` (stereo not drawn) [CP-020, 6-(2-(4-(5-acetyl-3-(6-acetyl-7-(difluoromethyl)-3,4-dihydroquinolin-1(2H)-yl)-4,5,6,7-tetrahydro-1H-pyrazolo[4,3-c]pyridin-1-yl)piperidin-1-yl)-2-oxoethyl)-2-(2,6-dioxopiperidin-3-yl)-5,6,7,8-tetrahydro-1H-pyrrolo[3,4-g]isoquinoline-1,3(2H)-dione]: the half-inhibitory concentration (IC50) is more than 10000 nM in assay [1] and less than 1000 nM in assay [4]. In addition, the Dmax in assay [2] and in assay [3] was less than 50% in each case. The DC50 in assay [2] and in assay [3] was more than 1000 nM each time.

`CC(=O)N1CCc2c(c(N3CCCc4cc(C5CCCCC5)c(C(F)F)cc43)nn2C2CCN(C(=O)CN3Cc4cc5c(cc4C3)C(=O)N(C3CCC(=O)NC3=O)C5=O)CC2)C1` (stereo not drawn) [CP-021, 6-(2-(4-(5-acetyl-3-(6-cyclohexyl-7-(difluoromethyl)-3,4-dihydroquinolin-1(2H)-yl)-4,5,6,7-tetrahydro-1H-pyrazolo[4,3-c]pyridin-1-yl)piperidin-1-yl)-2-oxoethyl)-2-(2,6-dioxopiperidin-3-yl)-6,7-dihydropyrrolo[3,4-f]isoindole-1,3(2H,5H)-dione]: the results for the IC50 in assay [1] and in assay [4] were less than 1000 nM and less than 100 nM, respectively. Further, the Dmax was more than 90% in assay [2] and more than 70% in assay [3]. Besides, the DC50 in assay [2] and in assay [3] was less than 10 nM in each case.

Turning to `CC(=O)N1CCc2c(c(N3CCCc4cc(-c5ccccc5)c(C(F)F)cc43)nn2C2CCN(C(=O)CN3Cc4cc5c(cc4C3)C(=O)N(C3CCC(=O)NC3=O)C5=O)CC2)C1` (stereo not drawn) [CP-022, 6-(2-(4-(5-acetyl-3-(7-(difluoromethyl)-6-phenyl-3,4-dihydroquinolin-1(2H)-yl)-4,5,6,7-tetrahydro-1H-pyrazolo[4,3-c]pyridin-1-yl)piperidin-1-yl)-2-oxoethyl)-2-(2,6-dioxopiperidin-3-yl)-6,7-dihydropyrrolo[3,4-f]isoindole-1,3(2H,5H)-dione], the IC50 in assay [1] and in assay [4] was less than 100 nM each time. Moreover, the Dmax in assay [2] and in assay [3] was more than 90% throughout. In addition, the DC50 in assay [2] and in assay [3] was less than 10 nM each time.
